The text below walks through data of patent US20130309306A1, “INTRAPULMONARY BENZODIAZEPINE FOR THE TREATMENT AND PREVENTION OF SEIZURES” (priority 2010, published 2013).

Series [1] relates to kainic acid induced seizure. As to the kind of experiment: Kainic acid seizure threshold test in mice (intravenous infusion). It is filed as in vivo. The method, then:
(§1) Male NIH Swiss mice (22-30 g) were kept in a vivarium under controlled environmental conditions (temperature, 22-26° C.; humidity, 40-50%) with an artificial 12-h light/dark cycle. Wood chips were used in all cages. Experiments were performed during the light phase of the light/dark cycle after a minimum 30-min period of acclimation to the experimental room. The animal facilities were fully accredited by the Association for Assessment and Accreditation of Laboratory Animal Care. All studies were performed under protocols approved by the Animal Care and Use Committee of the University of California, Davis in strict compliance with the Guide for the Care and Use of Laboratory Animals of the National Research Council (National Academy Press, Washington, D.C.).
Intratracheal administration of midazolam was carried out as described by Oka et al. (2006). In brief, mice were briefly anesthetized using isoflurane anesthesia (4% isoflurane). The animals were immediately placed on a surgical board held at a 60° angle. The animal's mouth was kept open by hanging the upper incisors on a hook to facilitate detection of the epiglottis. […]
Results are expressed as mean±S.E.M.; the significance of the difference in the responses of treatment groups with respect to control is based on one-way analysis of variance (ANOVA) followed by specific post-hoc comparisons using Tukey's test. […]

Series [2] relates to picrotoxin-induced seizure. The series is described as follows: Picrotoxin seizure threshold test in mice (intravenous infusion). The format is in vivo.
For another series, the system named is PTZ-induced seizures. As to the kind of experiment: PTZ seizure threshold test in mice (intravenous PTZ infusion), Example 1. The format is in vivo. The method, then:
as §1
Intratracheal administration of midazolam was carried out as described by Oka et al. (2006). In brief, mice were briefly anesthetized using isoflurane anesthesia (4% isoflurane). The animals were immediately placed on a surgical board held at a 60° angle. The animal's mouth was kept open by hanging the upper incisors on a hook to facilitate detection of the epiglottis. An operating light was used to illuminate the view of the pharynx after displacement of the tongue with a spatula. A syringe fitted with a blunted 24-gauge/25-mm was pushed against the soft palate to enter the trachea past the vocal cords. When the tracheal cartilage ring is felt, the needle is considered properly placed within the tracheal lumen. The needle was inserted almost to the bottom of the trachea. When the animals began to show signs that the anesthesia was waning, the liquid sample was gently injected at a dose volume of 0.25 ml/kg. After the injection of solution, air (1 ml syringe) was blown inside the lungs to uniformly distribute the drug in the lungs. Following the injection, the needle was gently removed and animal was held vertically for 2 min to facilitate the downward movement of liquid in the lungs. The animal was allowed 10 min to recover fully from the anesthesia as confirmed by normal spontaneous exploratory behavior. Seizure testing then commenced. For each of the seizure tests, we verified that there was no residual effect of the anesthetic on responsiveness.
The thresholds for various behavioral seizure stages induced by the GABA receptor antagonists PTZ and picrotoxin were determined by infusing the convulsant drugs via a 27 gauge-¾ inch “butterfly” needle inserted into the lateral tail vein. The needle was secured to the tail vein by a narrow piece of adhesive tape and the animal was permitted to move freely inside an inverted 2 litre glass beaker with free aeration from the top. PTZ (10 mg/ml) (Akula et al., 2008), and picrotoxin (1 mg/ml) (Chan et al., 2006) was infused at a constant rate of 0.5 ml/min using a Beckton Dickinson (1 ml) syringe mounted on an infusion pump (Model ‘11’ plus syringe pump; Harvard Apparatus, Holliston, Mass., USA). The syringe was connected to the needle by polyethylene tubing. The infusion was stopped at 3 min or at the onset of tonic extension, whichever occurred first. The thresholds to the following endpoints were determined: (i) the first myoclonic jerk; (ii) the onset of generalized clonus with loss of righting reflexes; and (iii) the onset of tonic extension. Latencies were measured from the start of convulsant infusion to the onset of all these three events. The threshold value (mg/kg) for each endpoint was determined according to the following formula: (infusion duration [sec]×infusion rate [ml/min]×convulsant drug concentration [mg/ml]×1000)/(60 [sec]×weight of mouse [g]).
Results are expressed as mean±S.E.M.; the significance of the difference in the responses of treatment groups with respect to control is based on one-way analysis of variance (ANOVA) followed by specific post-hoc comparisons using Tukey's test. Differences were considered statistically significant when the probability of error was less than 0.05 (P<0.05). […]

The nature of series [3]: Horizontal screen test, acute motor toxicity. The format is in vivo, mice. The following applies: intratracheal 100 μg/kg, any time point of the time course experiment. As to the method: The horizontal screen test was used to assess the acute motor toxicity of intratracheal midazolam (100 μg/kg) in the time course experiment.

In the case of `Cc1ncc2n1-c1ccc(Cl)cc1C(c1ccccc1F)=NC2` [Midazolam, midazolam], the “thresholds for clonus and tonic extensor phases, kainic acid infusion” value in series [1] (intraperitoneal 2000 μg/kg, pretreatment 10 min (FIG. 4A)) was “significant elevation”. Moreover, the “seizure thresholds, kainic acid infusion” value in series [1] (intratracheal 100 μg/kg, pretreatment 10 min (FIG. 4B)) was “effective”. Besides, in series [2] (intraperitoneal 100 μg/kg, pretreatment 10 min), the “seizure threshold, picrotoxin infusion” value was “effective in enhancing the seizure threshold for only clonic phase and ineffective against tonic extension”. For the same molecule, the “thresholds for all seizure signs, picrotoxin infusion” value in series [2] (intraperitoneal 250, 500 and 1000 μg/kg, pretreatment 10 min (FIG. 3A)) is recorded as “significant elevation”. Also, in series [2] (intratracheal 25 and 50 μg/kg, pretreatment 10 min (FIG. 3B)), the “seizure thresholds, picrotoxin infusion” value is given as “effective”. The “anticonvulsant activity, PTZ i.v. seizure threshold model” value with PTZ-induced seizures (25 μg/kg and 50 μg/kg intratracheally, 10 minutes before intravenous PTZ (FIG. 5)) is on record as “active as anticonvulsant”. Moreover, the “dose required for anticonvulsant activity, PTZ i.v. seizure threshold model” value with PTZ-induced seizures (administered intraperitoneally (FIG. 5)) was 0.5 mg/kg; with PTZ-induced seizures (administered intravenously, 10 minutes before intravenous PTZ (FIG. 5)), 0.1 to 0.2 mg/kg. For the same molecule, the “thresholds for all seizure signs (myoclonic jerk, clonus, tonic extension) vs vehicle” value with PTZ-induced seizures (intraperitoneal 500, 1000, 2500 and 5000 μg/kg, pretreatment 15 min (FIG. 1A)) is listed as “significant elevation”. Further, the “thresholds for seizure signs vs vehicle” value in the series on PTZ-induced seizures (intratracheal 12.5 μg/kg, pretreatment 10 min) is recorded as “enhanced the seizure threshold for clonic but ineffective against tonic extensor phases”; in the series with PTZ-induced seizures (intratracheal 25, 50 and 100 μg/kg, pretreatment 10 min (FIG. 1B)), “effective”. Also, in the series on PTZ-induced seizures (intratracheal 100 μg/kg), the “time of maximal effect” value lay in the range of 5 to 15 min. For the same molecule, the “time course: threshold vs vehicle pretreated animals” value in the series with PTZ-induced seizures (intratracheal 100 μg/kg, pretreatment 5, 10, 20, 40 and 60 min (FIG. 2)) is “elevation in threshold”. The “acute motor toxicity, horizontal screen test” value in series [3] is given as “No motor toxicity was observed”.
